Literature values, collected in patent publication US20040186084A1, “Triamcinolone formulations and methods for their preparation and use” (Akorn, Inc., priority 2003, published 2004).

solubility in organic solvents (methanol, acetone and ethyle acetate): sparingly soluble
solubility in water (water): relatively insoluble
Structure (SMILES): CC1(C)O[C@@H]2C[C@H]3[C@@H]4CCC5=CC(=O)C=C[C@]5(C)[C@@]4(F)[C@@H](O)C[C@]3(C)[C@]2(C(=O)CO)O1 [triamcinolone acetonide, (11β,16α)-9-fluoro-11,21-dihydroxy-16,17-[1-methylethylidenebis(oxy)]pregna-1,-4-diene-3,20-dione]
